This passage reports EC50 results from patent US20230348426A1, “OXOPYRROLIDINE FPR2 AGONISTS” (Bristol-Myers Squibb Company, priority 2020, published 2023).

In one assay the target is human FPR2 (Homo sapiens (Human), UniProt P25090). The assay is described as follows: FPR2 cyclic adenosine monophosphate (cAMP) assay. Format: cell-based. The following applies: CHO cells overexpressing human FPR2; forskolin 5 µM; inhibition of cAMP production; read-out: hFPR2 cAMP2 EC50. Summed up:
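CHO cells overexpressing human FPR2 (2,000/well) incubated 30 min at room temperature with compound (0.020 nM–100 µM, 1% DMSO), 5 µM forskolin and 200 µM IBMX.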
(Changes in cAMP serve as a functional read-out for many G protein-coupled receptors.)

The target of a further assay is human FPR1 (Homo sapiens (Human), UniProt P21462). In words: FPR1 cyclic adenosine monophosphate (cAMP) assay. Format: cell-based. The following applies: CHO cells overexpressing human FPR1; forskolin 10 µM; inhibition of cAMP production; read-out: hFPR1 cAMP EC50. Summed up: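 CHO cells overexpressing human FPR1 (4,000 cells/well) stimulated with 10 µM forskolin plus 200 µM IBMX in the presence of compound (0.020 nM–100 µM, 1% DMSO), 30 min at room temperature. Intracellular cAMP measured by HTRF. Inhibition of cAMP production fitted to a 4-parameter logistic equation.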
Sequence of human FPR1 (P21462 whole entry): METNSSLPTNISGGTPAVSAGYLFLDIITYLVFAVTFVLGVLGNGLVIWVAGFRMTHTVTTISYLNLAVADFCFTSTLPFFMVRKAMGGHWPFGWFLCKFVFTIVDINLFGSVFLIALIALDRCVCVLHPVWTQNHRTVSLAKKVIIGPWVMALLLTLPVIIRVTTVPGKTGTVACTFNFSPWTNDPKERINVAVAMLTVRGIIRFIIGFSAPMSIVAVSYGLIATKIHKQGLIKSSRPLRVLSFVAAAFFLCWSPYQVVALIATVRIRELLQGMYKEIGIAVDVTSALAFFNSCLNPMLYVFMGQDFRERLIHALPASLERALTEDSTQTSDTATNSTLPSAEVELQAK

Sequence of human FPR2 (P25090 whole entry): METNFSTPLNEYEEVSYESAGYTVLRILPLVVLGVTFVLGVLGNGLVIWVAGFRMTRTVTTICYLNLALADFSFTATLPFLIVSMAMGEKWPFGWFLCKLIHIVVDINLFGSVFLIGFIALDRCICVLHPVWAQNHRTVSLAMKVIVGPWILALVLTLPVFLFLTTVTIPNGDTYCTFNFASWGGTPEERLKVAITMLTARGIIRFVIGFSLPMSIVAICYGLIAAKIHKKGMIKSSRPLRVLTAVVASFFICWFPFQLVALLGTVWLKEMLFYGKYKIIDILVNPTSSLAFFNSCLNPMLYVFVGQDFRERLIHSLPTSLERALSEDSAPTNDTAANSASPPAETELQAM

As for `CCn1cc(C)c(C)c(N2C[C@@H](c3c(F)cc(OC)cc3F)C(NC(=O)c3ccc(OC(F)(F)F)cc3)C2=O)c1=O` (stereo partly shown) [Example 638], the figures for the EC50 at human FPR2 and on human FPR1 were 14 nM and 290 nM, respectively.
The corresponding values for `CCn1cc(C)c(C)c(N2C[C@@H](c3c(F)cc(OC)cc3F)C(NC(=O)c3ccc(OC(F)(F)F)cc3)C2=O)c1=O` (stereo partly shown) [Example 639] are 5.8 nM and 57 nM.
Taken in the same sequence, the figures for `COCCn1cc(C)c(C)c(N2C[C@@H](c3c(F)cc(OC)cc3F)C(NC(=O)c3ccc(Cl)cc3)C2=O)c1=O` (stereo partly shown) [Example 640] were 2.2 nM and 1200 nM.
The corresponding values for `COCCn1cc(C)c(C)c(N2C[C@@H](c3c(F)cc(OC)cc3F)C(NC(=O)c3ccc(Cl)cc3)C2=O)c1=O` (stereo partly shown) [Example 641] are 2.8 nM and 1000 nM.
Regarding `CCn1cc(C)c(C)c(N2C[C@@H](c3c(F)cc(OC)cc3F)[C@H](NC(=O)c3ccc(OC(F)F)cc3)C2=O)c1=O` [Example 642], the EC50 – broadly, the concentration that produces a half-maximal response – is 15 nM on human FPR2 and 570 nM at human FPR1.
The corresponding values for `COc1ccc([C@@H]2CN(c3cccn(CC(O)C(F)(F)F)c3=O)C(=O)[C@H]2NC(=O)c2ccc(OC(F)F)cc2)cc1` (stereo partly shown) [Example 643] are 2.6 nM and 75 nM.
Taken in the same sequence, the figures for `COc1ccc([C@@H]2CN(c3cccn(CC(O)C(F)(F)F)c3=O)C(=O)[C@H]2NC(=O)c2ccc(OC(F)F)cc2)cc1` (stereo partly shown) [Example 644] were 2.1 nM and 64 nM.
The corresponding values for `COc1ccc([C@@H]2CN(c3ccnn(CCC(F)(F)F)c3=O)C(=O)[C@H]2NC(=O)c2ccc(OC(F)F)cc2)cc1` [Example 645] are 2.8 nM and 190 nM.
With `COc1cc(F)c([C@@H]2CN(c3c4c(cn(CCO)c3=O)CCCC4)C(=O)[C@H]2NC(=O)c2ccc(OC(F)F)cc2)c(F)c1` [Example 646], the EC50 is 16 nM on human FPR2 and 670 nM at human FPR1.
The corresponding values for `CCn1ccc(N2C[C@@H](c3c(F)cc(OC)cc3F)[C@H](NC(=O)c3ccc(Cl)cc3)C2=O)n1` [Example 647] are 1.5 nM and 22 nM.
In the case of `CCn1ccc(N2C[C@@H](c3c(F)cc(OC)cc3F)[C@H](NC(=O)c3ccc(OC(F)F)cc3)C2=O)n1` [Example 648], the results for the EC50 at human FPR2 and at human FPR1 were 0.7 nM and 4.1 nM, respectively.
The corresponding values for `CCn1ccc(N2C[C@@H](c3c(F)cc(OC)cc3F)[C@H](NC(=O)c3ccc(OC(F)(F)F)cc3)C2=O)n1` [Example 649] are 1.3 nM and 7.8 nM.
In the case of `COCCn1ccnc1N1C[C@@H](c2c(F)cc(OC)cc2F)[C@H](NC(=O)c2ccc(Cl)cc2)C1=O` [Example 650], the EC50 at human FPR2 turned out to be 11 nM; at human FPR1, 1700 nM.
Taken in the same sequence, the figures for `COCCn1ccnc1N1C[C@@H](c2c(F)cc(OC)cc2F)[C@H](NC(=O)c2ccc(OC(F)F)cc2)C1=O` [Example 651] were 3.5 nM and 780 nM.
For the compound `COCCn1ccnc1N1C[C@@H](c2c(F)cc(OC)cc2F)[C@H](NC(=O)c2ccc(OC(F)(F)F)cc2)C1=O` [Example 652], the EC50 at human FPR2 is 7.2 nM; on human FPR1, 700 nM.
For the compound `COc1cc(F)c([C@@H]2CN(c3c(C)ccn(CC(F)F)c3=O)C(=O)[C@H]2NC(=O)c2ccc(Cl)cc2)c(F)c1` [Example 653], the EC50 turned out to be 3.3 nM at human FPR2 and 12 nM at human FPR1.
With `COc1cc(F)c([C@@H]2CN(c3c(C)ccn(C4CCOC4)c3=O)C(=O)[C@H]2NC(=O)c2ccc(Cl)cc2)c(F)c1` (stereo partly shown) [Example 654], the concentration for a half-maximal effect (EC50) on human FPR2 amounted to 1 nM; on human FPR1, 12 nM.
The corresponding values for `COc1cc(F)c([C@@H]2CN(c3c(C)ccn(C4CCOC4)c3=O)C(=O)[C@H]2NC(=O)c2ccc(OC(F)(F)F)cc2)c(F)c1` (stereo partly shown) [Example 655] are 3.8 nM and 1.2 nM.
Taken in the same sequence, the figures for `COc1ccc([C@@H]2CN(c3cccn(CC(O)C(F)(F)F)c3=O)C(=O)[C@H]2NC(=O)c2ccc(OC(F)(F)F)cc2)cc1` (stereo partly shown) [Example 656] were 2.5 nM and 13 nM.
Taken in the same sequence, the figures for `COc1ccc([C@@H]2CN(c3cccn(CC(O)C(F)(F)F)c3=O)C(=O)[C@H]2NC(=O)c2ccc(OC(F)(F)F)cc2)cc1` (stereo partly shown) [Example 657] were 2 nM and 45 nM.
As to `COCCn1ncc(C)c(N2C[C@@H](c3c(F)cc(OC)cc3F)[C@H](NC(=O)c3ccc(OC(F)F)cc3)C2=O)c1=O` [Example 658], the figures for the EC50 on human FPR2 and at human FPR1 were 3.4 nM and 1.7 nM, respectively.
For `COc1cc(F)c([C@@H]2CN(c3c(C)ccn(C(F)(F)CO)c3=O)C(=O)[C@H]2NC(=O)c2ccc(OC(F)(F)F)cc2)c(F)c1` [Example 659], the results for the EC50 on human FPR2 and at human FPR1 were 1 nM and 1.3 nM, respectively.
The corresponding values for `COc1cc(F)c([C@@H]2CN(c3ccn(CC(F)F)n3)C(=O)[C@H]2NC(=O)c2ccc(OC(F)F)cc2)c(F)c1` [Example 661] are 1.2 nM and 110 nM.
With `COc1cc(F)c([C@@H]2CN(c3ccn(CC(F)F)n3)C(=O)[C@H]2NC(=O)c2ccc(OC(F)(F)F)cc2)c(F)c1` [Example 662], the figures for the EC50 on human FPR2 and at human FPR1 were 4 nM and 14 nM, respectively.
Taken in the same sequence, the figures for `CCn1cc2c(c(N3C[C@@H](c4c(F)cc(OC)cc4F)[C@H](NC(=O)c4ccc(OC(F)F)cc4)C3=O)c1=O)CCCC2` [Example 663] were 1.1 nM and 1700 nM.
The corresponding values for `CCn1cc2c(c(N3C[C@@H](c4c(F)cc(OC)cc4F)[C@@H](NC(=O)c4ccc(OC(F)F)cc4)C3=O)c1=O)CCCC2` [Example 664] are 8.7 nM and 190 nM.
Taken in the same sequence, the figures for `COc1cc(F)c([C@@H]2CN(c3c(C)ccn(CC4CNC(=O)O4)c3=O)C(=O)[C@H]2NC(=O)c2ccc(OC(F)F)cc2)c(F)c1` (stereo partly shown) [Example 665] were less than 10 nM and 7.4 nM.
Regarding `COc1cc(F)c([C@@H]2CN(c3ccc4n(c3=O)CCOC4=O)C(=O)[C@H]2NC(=O)c2ccc(OC(F)(F)F)cc2)c(F)c1` [Example 667], the values for the EC50 on human FPR2 and on human FPR1 were 63 nM and 7.7 nM, respectively.
As for `COc1cc(F)c([C@@H]2CN(c3ccc4n(c3=O)CCOC4=O)C(=O)[C@H]2NC(=O)c2ccc(OC(F)F)cc2)c(F)c1` [Example 668], the results for the EC50 at human FPR2 and on human FPR1 were 8.8 nM and 210 nM, respectively.
Taken in the same sequence, the figures for `COc1cc(F)c([C@@H]2CN(c3cccn(CC(O)CO)c3=O)C(=O)[C@H]2NC(=O)c2ccc(OC(F)(F)F)cc2)c(F)c1` (stereo partly shown) [Example 669] were 11 nM and 270 nM.
Taken in the same sequence, the figures for `COc1ccc([C@@H]2CN(c3ccnn(CCC(F)(F)F)c3=O)C(=O)[C@H]2NC(=O)c2ccc(OC(F)F)cc2)cc1` [Example 672] were 7.9 nM and 5 nM.
The corresponding values for `CCn1nccc(N2C[C@@H](c3ccc(OC)cc3)[C@H](NC(=O)c3ccc(OC(F)F)cc3)C2=O)c1=O` [Example 674] are 6.8 nM and 23 nM.
`CCn1nccc(N2C[C@@H](c3ccc(OC)cc3)[C@H](NC(=O)c3ccc(OC(F)(F)F)cc3)C2=O)c1=O` [Example 675]: the figures for the EC50 at human FPR2 and on human FPR1 were 5.5 nM and 5 nM, respectively.
Taken in the same sequence, the figures for `COc1cc(F)c([C@@H]2CN(c3nccc(OCC(C)(C)O)c3C(F)(F)F)C(=O)[C@H]2NC(=O)c2ccc(Cl)cc2)c(F)c1` [Example 676] were 13 nM and 295 nM.
Taken in the same sequence, the figures for `COc1cc(F)c([C@@H]2CN(c3cccn(CC(O)CO)c3=O)C(=O)[C@H]2NC(=O)c2ccc(Cl)cc2)c(F)c1` (stereo partly shown) [Example 677] were 5.3 nM and 230 nM.
For `COc1cc(F)c([C@@H]2CN(c3cccn(CC(O)CO)c3=O)C(=O)[C@H]2NC(=O)c2ccc(OC(F)F)cc2)c(F)c1` (stereo partly shown) [Example 678], the values for the half-maximal effective concentration (EC50) at human FPR2 and on human FPR1 were 11 nM and 92 nM, respectively.
Taken in the same sequence, the figures for `COc1cc(F)c([C@@H]2CN(c3cccn(CC(O)CO)c3=O)C(=O)[C@H]2NC(=O)c2ccc(OC(F)(F)F)cc2)c(F)c1` (stereo partly shown) [Example 679] were 6 nM and 28 nM.
Taken in the same sequence, the figures for `COc1cc(F)c([C@@H]2CN(c3cccn(CC(O)CO)c3=O)C(=O)[C@H]2NC(=O)c2ccc(Cl)cc2)c(F)c1` (stereo partly shown) [Example 680] were 2.8 nM and 780 nM.
The corresponding values for `COc1cc(F)c([C@@H]2CN(c3cccn(CC(O)CO)c3=O)C(=O)[C@H]2NC(=O)c2ccc(OC(F)F)cc2)c(F)c1` (stereo partly shown) [Example 681] are 10 nM and 1000 nM.
Take `COc1cc(F)c([C@@H]2CN(c3c(C)ccn(CC(O)C4CC4)c3=O)C(=O)[C@H]2NC(=O)c2ccc(OC(F)F)cc2)c(F)c1` (stereo partly shown) [Example 682]: the EC50 at human FPR2 turned out to be 15 nM; at human FPR1 it was 1 nM.
Consider `COc1cc(F)c([C@@H]2CN(c3c(C)ccn(CC(O)C4CC4)c3=O)C(=O)[C@H]2NC(=O)c2ccc(OC(F)F)cc2)c(F)c1` (stereo partly shown) [Example 685], for which the results for the EC50 at human FPR2 and at human FPR1 were 14 nM and 1.4 nM, respectively.
Taken in the same sequence, the figures for `COc1ccc([C@@H]2CN(c3c(C)ccn(C4CCC4)c3=O)C(=O)[C@H]2NC(=O)c2ccc(OC(F)(F)F)cc2)cc1` [Example 687] were 1.8 nM and 0.28 nM.
For `COc1ccc([C@@H]2CN(c3c(C)ccn(C4CCC4)c3=O)C(=O)[C@H]2NC(=O)c2ccc(OC(F)(F)F)cc2)c(F)c1` [Example 688], the results for the EC50 on human FPR2 and at human FPR1 were 12 nM and 1.5 nM, respectively.
In the case of `COc1ccc([C@@H]2CN(c3c(C)ccn(C4CCC4)c3=O)C(=O)[C@H]2NC(=O)c2ccc(OC(F)F)cc2)c(F)c1` [Example 689], the EC50 at human FPR2 turned out to be 4.5 nM; on human FPR1, 1.5 nM.
